Source: PMC8102414 (Heliyon, 2021)
Values after ≈ are worked out from the molar mass of the structure shown.

Legend:
[1] = test system: methicillin resistant Staphylococcus aureus NPRC 001R; assay: Antimicrobial MIC, 2-fold serial dilution; details: for MIC (μg/mL) MRSA: Gram-positive, Methicillin Resistant Staphylococcus aureus (NPRC 001R), Inactive at >128 μg/mL
[2] = test system: Staphylococcus aureus ATCC 25923; assay: Antimicrobial MIC, 2-fold serial dilution; details: for MIC (μg/mL) SA: Gram-positive, Staphylococcus aureus (ATCC 25923), Inactive at >128 μg/mL; for MIC: Staphylococcus aureus, ATCC25923, read-out: MIC (μg/mL) SA
3T3-L1 adipocyte cells = assay: Glucose consumption assay; format: cell-based; details: induction of glucose consumption, 3T3-L1 adipocyte cells; Inactive at >100 μM
[3] = test system: advanced glycation end products (AGEs); assay: Glycation inhibition assay; format: biochemical; details: Inactive at >100 μM; for IC50: read-out: Glycation inhibition (IC50)
[4] = test system: Salmonella typhimurium DMST 562; assay: Antimicrobial MIC, 2-fold serial dilution; details: for MIC: Salmonella enterica, TYPHIMURIUM, read-out: MIC (μg/mL) STR; for MIC (μg/mL) STR: Gram-negative, Salmonella typhimurium (DMST 562), Inactive at >128 μg/mL
[5] = test system: Pseudomonas aeruginosa ATCC 10145; assay: Antimicrobial MIC, 2-fold serial dilution; details: for MIC: Pseudomonas aeruginosa, ATCC10145, read-out: MIC (μg/mL) PA
[6] = test system: Micrococcus luteus DMST 15503; assay: Antimicrobial MIC, 2-fold serial dilution; details: for MIC (μg/mL) MT: Gram-positive, Micrococcus luteus (DMST 15503), Inactive at >128 μg/mL; for MIC: Micrococcus luteus, DMST15503, read-out: MIC (μg/mL) MT
[7] = test system: Salmonella typhi DMST 22842; assay: microbe, parasite or virus in culture; format: cell-based; details: for MIC (μg/mL) ST: Gram-negative, Salmonella typhi (DMST 22842), Inactive at >128 μg/mL; for MIC: Salmonella enterica, TYPHI, read-out: MIC (μg/mL) ST
[8] = test system: Shigella flexneri DMST 4423; assay: Antimicrobial MIC, 2-fold serial dilution; details: for MIC (μg/mL) SF: Gram-negative, Shigella flexneri (DMST 4423), Inactive at >128 μg/mL; for MIC: Shigella flexneri, DMST4423, read-out: MIC (μg/mL) SF
[9] = test system: Escherichia coli TISTR 780; assay: Antimicrobial MIC, 2-fold serial dilution; details: for MIC: Escherichia coli, TISTR780, read-out: MIC (μg/mL) EC; for MIC (μg/mL) EC: Gram-negative, Escherichia coli (TISTR 780), Inactive at >128 μg/mL
RAW 264.7 cells = assay: Nitric oxide production inhibition assay; format: cell-based; details: for NO Inhibition (IC50, μM): LPS-stimulated NO production in RAW 264.7 cells, Inactive at >100 μM
[10] = test system: Enterococcus faecalis ATCC 29212; assay: Antimicrobial MIC, 2-fold serial dilution; details: for MIC (μg/mL) EF: Gram-positive, Enterococcus faecalis (ATCC 29212), Inactive at >128 μg/mL; for MIC: Enterococcus faecalis, ATCC29212, read-out: MIC (μg/mL) EF
[11] = test system: Streptococcus pyogenes ATCC, 19615; assay: Antimicrobial MIC, 2-fold serial dilution; details: for MIC (μg/mL) SP: Gram-positive, Streptococcus pyogenes (ATCC, 19615), Inactive at >128 μg/mL; for MIC: Streptococcus pyogenes, read-out: MIC (μg/mL) SP
[12] = test system: Candida albicans ATCC 10231; assay: Antimicrobial MIC, 2-fold serial dilution; details: for MIC (μg/mL) CA: Fungi, Candida albicans (ATCC 10231), Inactive at >128 μg/mL; for MIC: Candida albicans, ATCC10231, read-out: MIC (μg/mL) CA

Row | Structure (SMILES) | MIC (μg/mL) MRSA [1] | MIC (μg/mL) SA [2] | Glucose consumption (IC50, μM) (3T3-L1 adipocyte cells) | Glycation inhibition (IC50, μM) [3] | MIC [5] | MIC (μg/mL) MT [6] | MIC (μg/mL) ST [7] | MIC (μg/mL) SF [8] | MIC [9] | NO Inhibition (IC50, μM) (RAW 264.7 cells) | MIC (μg/mL) EF [10] | MIC (μg/mL) SP [11] | MIC (μg/mL) CA [12] | MIC (μg/mL) STR [4] | MIC [7] | MIC [10] | MIC (μg/mL) EC [9] | MIC [2] | other results
1 | COc1ccc2c3c(oc2c1CC=C(C)C)-c1ccc(O)cc1OC3 [Compound 3, eryvarin D] | Inactive | Inactive | Inactive | Inactive | 128 µg/mL (≈ 381 µM) | Inactive | Inactive | Inactive | 128 µg/mL (≈ 381 µM) | Inactive | Inactive | Inactive | Inactive | – | – | – | – | – | MIC [4]: 128 µg/mL (≈ 381 µM)
2 | O=c1oc2cc(O)ccc2c2oc3cc(O)ccc3c12 [Compound 6, coumestrol] | – | Inactive | Inactive | Inactive | 128 µg/mL (≈ 477 µM) | Inactive | – | – | 128 µg/mL (≈ 477 µM) | Inactive | – | Inactive | – | Inactive | 128 µg/mL (≈ 477 µM) | 128 µg/mL (≈ 477 µM) | – | – | MIC [8]: 128 µg/mL (≈ 477 µM); MIC [12]: 128 µg/mL (≈ 477 µM)
3 | CC(C)=CCc1c(O)ccc2c1O[C@H]1c3ccc(O)cc3OC[C@@H]21 [Compound 11, phaseollidin] | – | – | Inactive | Inactive | 128 µg/mL (≈ 395 µM) | – | – | Inactive | – | Inactive | – | – | – | Inactive | 128 µg/mL (≈ 395 µM) | 128 µg/mL (≈ 395 µM) | Inactive | – | MIC [6]: 128 µg/mL (≈ 395 µM); MIC [12]: 128 µg/mL (≈ 395 µM)
4 | O=C1C[C@@H](c2ccccc2)Oc2cc(O)cc(O)c21 [Compound 15, pinocembrin] | Inactive | – | Inactive | – | 128 µg/mL (≈ 499 µM) | Inactive | Inactive | – | 128 µg/mL (≈ 499 µM) | Inactive | Inactive | Inactive | Inactive | Inactive | – | – | – | 128 µg/mL (≈ 499 µM) | IC50 [3]: 83.1 ± 0.94 µM; MIC [8]: 128 µg/mL (≈ 499 µM)
5 | O=c1c(O)c(-c2ccc(O)cc2)oc2ccc(O)cc12 [Compound 16, 3,6,4′-trihydroxyflavone] | Inactive | – | Inactive | Inactive | 128 µg/mL (≈ 474 µM) | Inactive | Inactive | Inactive | 128 µg/mL (≈ 474 µM) | – | Inactive | Inactive | Inactive | Inactive | – | – | – | 128 µg/mL (≈ 474 µM) | IC50 (RAW 264.7 cells; Mus musculus, RAW264.7, read-out: NO Inhibition (IC50, μM)): 96.2 ± 1.61 µM
6 | O=c1c(O)c(-c2ccccc2)oc2ccc(O)cc12 [Compound 17, 3,6-dihydroxyflavone] | Inactive | – | Inactive | Inactive | 128 µg/mL (≈ 503 µM) | Inactive | Inactive | Inactive | – | Inactive | Inactive | Inactive | Inactive | Inactive | – | – | Inactive | 128 µg/mL (≈ 503 µM) | –
7 | COc1cc(O)cc2oc(-c3ccccc3)cc(=O)c12 [Compound 18, 5-methoxy-7-hydroxyflavone] | Inactive | – | Inactive | Inactive | 128 µg/mL (≈ 477 µM) | Inactive | – | Inactive | 128 µg/mL (≈ 477 µM) | Inactive | Inactive | Inactive | Inactive | Inactive | 128 µg/mL (≈ 477 µM) | – | – | 128 µg/mL (≈ 477 µM) | –
8 | CC(C)=CCc1cc(-c2coc3c(CC=C(C)C)c(O)ccc3c2=O)ccc1O [Compound 20, erysubin F] | Inactive | – | Inactive | Inactive | – | Inactive | Inactive | Inactive | – | Inactive | – | Inactive | – | Inactive | – | 128 µg/mL (≈ 328 µM) | Inactive | – | MIC (μg/mL) PA ([5]; Gram-negative, Pseudomonas aeruginosa (ATCC 10145), Inactive at >128 μg/mL): Inactive
9 | O=c1c(-c2ccc(O)cc2)coc2cc(O)cc(O)c12 [Compound 21, genistein] | Inactive | Inactive | Inactive | Inactive | 128 µg/mL (≈ 474 µM) | Inactive | Inactive | Inactive | – | Inactive | Inactive | Inactive | Inactive | Inactive | – | – | Inactive | – | –
10 | CC(C)=CCc1cc([C@@H]2CC(=O)c3c(O)cc(O)cc3O2)cc(CC=C(C)C)c1O [Compound 25, abyssinone V] | Inactive | – | Inactive | Inactive | 128 µg/mL (≈ 313 µM) | – | – | – | – | Inactive | Inactive | – | Inactive | – | 128 µg/mL (≈ 313 µM) | – | Inactive | 128 µg/mL (≈ 313 µM) | MIC [4]: 128 µg/mL (≈ 313 µM); MIC [6]: 128 µg/mL (≈ 313 µM); MIC [8]: 128 µg/mL (≈ 313 µM); MIC [11]: 128 µg/mL (≈ 313 µM)
11 | COc1ccc(C=CC(=O)O)c(O)c1 [Compound 28, 2-hydroxy-4-methoxy-cinnamic acid] | Inactive | Inactive | Inactive | Inactive | 128 µg/mL (≈ 659 µM) | Inactive | Inactive | Inactive | – | Inactive | Inactive | Inactive | Inactive | Inactive | – | – | Inactive | – | –
12 | O=c1c(O)c(-c2ccc(O)c(O)c2)oc2cc(O)cc(O)c12 [Quercetin, quercetin, reference compound] | – | – | – | – | – | – | – | – | – | – | – | – | – | – | – | – | – | – | IC50 [3]: 59.1 ± 0.78 µM
13 | CN[C@H](CC(C)C)C(=O)N[C@H]1C(=O)N[C@@H](CC(N)=O)C(=O)N[C@H]2C(=O)N[C@H]3C(=O)N[C@H](C(=O)N[C@H](C(=O)O)c4cc(O)cc(O)c4-c4cc3ccc4O)[C@H](O)c3ccc(c(Cl)c3)Oc3cc2cc(c3O[C@@H]2O[C@H](CO)[C@@H](O)[C@H](O)[C@H]2O[C@H]2C[C@](C)(N)[C@H](O)[C@H](C)O2)Oc2ccc(cc2Cl)[C@H]1O [Vancomycin, vancomycin, reference compound] | – | – | – | – | – | – | – | – | – | – | – | – | – | – | – | 2 µg/mL (≈ 1.38 µM) | – | 0.5 µg/mL (≈ 0.345 µM) | MIC ([1]; Staphylococcus aureus, MRSA, read-out: MIC (μg/mL) MRSA): 1 µg/mL (≈ 0.69 µM); MIC [6]: 2 µg/mL (≈ 1.38 µM); MIC [11]: 2 µg/mL (≈ 1.38 µM); MIC [12]: 4 µg/mL (≈ 2.76 µM)
